# Results taken from patent publication US8772319B2 (priority 2004, dated 2014).
# Values joined by “and” are separate entries in the source; they are usually repeats but may differ in a detail not shown here. Equal entries are not always repeated. Structures can show the parent of a compound that is named as a salt. Where two headings read alike, the source gives them in different places.
# Experiments:
# [1] = target: T1, human dopamine transporter (hDAT) (Homo sapiens, UniProt Q01959); assay: biochemical; assay type: binding
# T1 sequence (Q01959 whole entry): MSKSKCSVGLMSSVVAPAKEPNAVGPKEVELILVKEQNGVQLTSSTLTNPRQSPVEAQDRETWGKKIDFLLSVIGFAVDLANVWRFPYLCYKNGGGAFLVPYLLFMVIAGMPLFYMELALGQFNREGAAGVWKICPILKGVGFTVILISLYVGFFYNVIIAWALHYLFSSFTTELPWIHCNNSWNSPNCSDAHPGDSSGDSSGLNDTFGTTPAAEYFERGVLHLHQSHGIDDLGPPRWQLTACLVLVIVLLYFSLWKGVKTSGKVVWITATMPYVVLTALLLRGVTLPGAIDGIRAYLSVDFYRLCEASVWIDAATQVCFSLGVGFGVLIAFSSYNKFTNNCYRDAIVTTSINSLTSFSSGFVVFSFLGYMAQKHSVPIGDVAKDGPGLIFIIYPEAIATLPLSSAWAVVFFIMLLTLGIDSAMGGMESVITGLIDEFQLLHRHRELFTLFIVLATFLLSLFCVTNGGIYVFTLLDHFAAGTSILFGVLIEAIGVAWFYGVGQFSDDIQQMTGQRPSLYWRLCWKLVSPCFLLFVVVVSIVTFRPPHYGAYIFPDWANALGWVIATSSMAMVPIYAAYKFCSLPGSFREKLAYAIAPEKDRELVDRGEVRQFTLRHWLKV
# [2] = target: T2, human serotonin transporter (hSERT) (Homo sapiens, UniProt P31645); assay: biochemical; details: [125I]RTI-55, read-out: SERT binding affinity Ki
# T2 sequence (P31645 whole entry): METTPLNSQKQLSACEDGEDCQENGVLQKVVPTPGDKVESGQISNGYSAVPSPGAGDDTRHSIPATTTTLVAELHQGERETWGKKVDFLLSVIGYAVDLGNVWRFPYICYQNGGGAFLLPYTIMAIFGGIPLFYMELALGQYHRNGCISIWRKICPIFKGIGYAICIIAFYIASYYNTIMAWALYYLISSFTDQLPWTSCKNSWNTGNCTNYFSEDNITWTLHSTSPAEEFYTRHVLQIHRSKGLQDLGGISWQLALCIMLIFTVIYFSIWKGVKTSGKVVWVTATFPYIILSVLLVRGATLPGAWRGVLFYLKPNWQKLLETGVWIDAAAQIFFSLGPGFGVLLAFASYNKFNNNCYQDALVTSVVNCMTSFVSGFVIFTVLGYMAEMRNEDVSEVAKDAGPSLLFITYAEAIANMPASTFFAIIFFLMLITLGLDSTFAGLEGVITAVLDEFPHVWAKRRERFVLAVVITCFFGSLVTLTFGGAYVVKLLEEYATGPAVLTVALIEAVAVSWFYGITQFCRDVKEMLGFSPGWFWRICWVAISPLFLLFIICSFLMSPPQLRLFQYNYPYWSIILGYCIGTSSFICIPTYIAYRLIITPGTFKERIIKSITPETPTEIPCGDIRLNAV
# [3] = target: T3, human norepinephrine transporter (hNET) (Homo sapiens, UniProt P23975); assay: biochemical; details: read-out: NET binding affinity Ki
# T3 sequence (P23975 whole entry): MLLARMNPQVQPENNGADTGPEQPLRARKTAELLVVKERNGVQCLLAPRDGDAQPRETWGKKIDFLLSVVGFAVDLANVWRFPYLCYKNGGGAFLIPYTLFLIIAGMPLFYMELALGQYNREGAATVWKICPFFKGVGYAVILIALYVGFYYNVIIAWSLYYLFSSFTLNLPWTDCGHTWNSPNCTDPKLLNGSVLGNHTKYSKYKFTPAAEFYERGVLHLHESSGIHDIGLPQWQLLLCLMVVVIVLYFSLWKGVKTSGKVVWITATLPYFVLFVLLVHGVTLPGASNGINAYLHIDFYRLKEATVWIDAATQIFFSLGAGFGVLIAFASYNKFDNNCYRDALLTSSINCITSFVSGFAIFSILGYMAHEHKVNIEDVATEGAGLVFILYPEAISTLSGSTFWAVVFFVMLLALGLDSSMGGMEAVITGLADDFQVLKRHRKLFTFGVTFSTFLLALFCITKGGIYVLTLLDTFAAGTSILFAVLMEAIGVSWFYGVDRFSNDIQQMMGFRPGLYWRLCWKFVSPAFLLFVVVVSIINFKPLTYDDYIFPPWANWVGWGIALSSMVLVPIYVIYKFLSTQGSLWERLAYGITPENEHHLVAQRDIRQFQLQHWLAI
# [4] = target: T1, human dopamine transporter (hDAT); assay: cell-based
# [5] = target: T2, human serotonin transporter (hSERT); assay: cell-based
# [6] = target: T3, human norepinephrine transporter (hNET); assay: cell-based; details: read-out: Reuptake Inhibition [3H]NE IC50
# male Swiss-Webster mice [7] = assay: Locomotor activity, compound alone, 1-h session; assay type: in vivo, mouse; details: for mode of action: ligand alone study; for effect on spontaneous LMA: compound alone; for ED50: Mus musculus, ip, 1 h, read-out: ED50, dose producing 1/2 maximal stimulant activity (S, stimulation); for ME/CME, Maximal Effect/Cocaine Maximal Effect: mouse locomotor activity
# Experimental: (§1) 3. Locomotor Activity. […] Panels of infrared beams (16 beams) and corresponding photodetectors were located in the horizontal direction along the sides of each activity chamber. […] Just prior to placement in the apparatus, all mice received a saline injection IP. In all studies, horizontal activity (interruption of 1 photocell beam) was measured for 1-h within 10-min periods. Testing was conducted with one mouse per activity chamber. […] Plot the mean (±SEM) maximal stimulant activity (total counts in the 30 min period divided by 3) vs dose. Perform a log10 transformation of the 30 min period average counts for individual subjects to homogenize variances for subsequent analyses. […] Fit the 30 min period average counts across subjects to a function of log10 dose using least-squares curve-fitting analyses (i.e. TableCurve software from Jandel). Estimate the maximum effect from the resultant dose-response curve. […] Determine the ED50 (dose that produces ½ maximal stimulant activity) from a linear regression analysis of the ascending portion (up to the dose that produces a maximal effect) of the curve. […] Plot the mean (±SEM) activity (total counts in the 30 min period divided by 3) vs dose. Perform a log10 transformation of the 30 min period average counts for individual subjects to homogenize variances for subsequent analyses. Conduct an ANOVA and contrast (specified a priori) each dose of the test compound to the vehicle to determine significant (p<0.05) dose effects. Conduct a linear least-squares regression analysis; regress the min period average counts across subjects over the descending portion of the curve against the log10 dose of the test compound. […] Perform a log10 transformation of the 30 min period average counts for individual subjects to homogenize variances for subsequent analyses. […] Conduct a linear least-squares regression analysis; regress the 30 min period average counts across subjects over the descending portion of the curve against the log10 dose of the test compound. […] Locomotor Activity 8-hour time course/dose response study. […] A panel of infrared beams (16 beams) and corresponding photodetectors were located in the horizontal direction along the sides of each activity chamber. A 7.5-W incandescent light above each chamber provided dim illumination. Fans provided an 80-dB ambient noise level within the chamber. […] In all studies, horizontal activity (interruption of photocell beams) was measured for 8-h within 10-min periods, beginning at 0800 hrs (2 hours after lights on). Testing was conducted with one mouse per activity chamber. Compound alone study.
# male Swiss-Webster mice [8] = assay: Cocaine/compound interaction study on locomotor activity; assay type: in vivo, mouse; details: for Attenuation of cocaine-induced LMA: 20 mg/kg of cocaine; for AD50, dose attenuating cocaine-induced stimulation by 50%: Table 8, ligand-cocaine interaction study, 20 mg/kg cocaine IP
# male Swiss-Webster mice [9] = assay: Locomotor activity 8-hour time course/dose response study; details: for ED50: Mus musculus, ip, 8 h, read-out: ED50, dose producing 1/2 maximal stimulant activity (S, stimulation)
# Experimental: as §1
# [10] = Table 5, [125I]RTI-55, oxalate salts, read-out: DAT binding affinity Ki
# [11] = Table 6, read-out: Reuptake Inhibition [3H]DA IC50
# [12] = Table 8, mouse, IP, ligand alone, 1-h session
# [13] = Table 5, [125I]RTI-55, oxalate salts
smiles,measurement,setting,value
"O=[N+]([O-])c1ccc(S(=O)(=O)N2CCN(CCCCOC(c3ccc(F)cc3)c3ccc(F)cc3)CC2)cc1 (as salt: oxalate) [Compound 42, 1-[4-[Bis(4-fluorophenyl)methoxy]butyl]-4-(4-nitrobenzenesulfonyl)piperazine]",melting point,,170 to 173 °C
"Fc1ccc(C(OCCCCN2CCN(c3ccccc3)CC2)c2ccc(F)cc2)cc1 (as salt: oxalate) [Compound 29, 1-Phenyl-4-[4-[bis(4-fluorophenyl)methoxy]butyl]piperazine]",melting point,,185 to 187 °C
"O=[N+]([O-])c1ccc(S(=O)(=O)N2CCN(CCCCOC(c3ccc(F)cc3)c3ccc(F)cc3)CC2)cc1 [Compound 42, 1-[4-[Bis(4-fluorophenyl)methoxy]butyl]-4-(4-nitrobenzenesulfonyl)piperazine]",Binding Ratios NET/DAT,[1]; Table 5,>13.2
same,Binding Ratios SERT/DAT,[1]; Table 5,6.5
same,Ki,[1]; [10],760 ± 220 nM
same,Ki,"[2]; Table 5, oxalate salts",4930 ± 670 nM
same,Ki,"[3]; Table 5, bound given in μM",> 10 µM
same,Discrimination Ratios (DR) [3H]DA reuptake/DAT binding,[4]; Table 6,5.5
same,IC50,[4]; [11],4200 ± 1100 nM
same,IC50,"[5]; Table 6, bound given in μM, read-out: Reuptake Inhibition [3H]5-HT IC50",> 10 µM
same,IC50,"[6]; Table 6, bound given in μM",> 10 µM
same,"ED50, dose producing 1/2 maximal stimulant activity (S, stimulation)",male Swiss-Webster mice [7]; [12],no activity
same,Attenuation of cocaine-induced LMA,male Swiss-Webster mice [8],failed to attenuate
same,"AD50, dose attenuating cocaine-induced stimulation by 50%",male Swiss-Webster mice [8],no attenuation
"Fc1ccc(C(OCCCCN2CCN(c3cccc(C(F)(F)F)c3)CC2)c2ccc(F)cc2)cc1 [Compound 36, 1-[3-(Trifluoromethyl)phenyl]-4-[4-[bis(4-fluorophenyl)methoxy]butyl]piperazine]",Binding Ratios NET/DAT,[1]; Table 5,6.8
same,Binding Ratios SERT/DAT,[1]; Table 5,6.8
same,Ki,[3]; [13],0.222 ± 0.0097 µM
same,Discrimination Ratios (DR) [3H]DA reuptake/DAT binding,[4]; Table 6,11.7
same,mode of action,male Swiss-Webster mice [7]; Table 8,monophasic
same,"ID50, dose producing 1/2 maximal depressant activity (I, inhibition)",male Swiss-Webster mice [7]; [12],113 mg/kg and 113/I^g mg/kg
same,effect on spontaneous LMA,male Swiss-Webster mice [7]; mouse,Significant suppression
same,"AD50, dose attenuating cocaine-induced stimulation by 50%",male Swiss-Webster mice [8],18.35 mg/kg
same,ED50,male Swiss-Webster mice [9],1.1 mg/kg
same,"ME/CME, Maximal Effect/Cocaine Maximal Effect","male Swiss-Webster mice [9]; Table 9, 8 hours",0.46
same,mode of action,"male Swiss-Webster mice [9]; Table 9, ligand alone study, 8 hours",monophasic
"O=C1CN(CCCCOC(c2ccc(F)cc2)c2ccc(F)cc2)CCN1 (as salt: oxalate) [Compound 27, 2-Oxo-4-[4-[bis(4-fluorophenyl)methoxy]butyl]piperazine]",melting point,,120 to 123 °C
"Fc1ccc(C(OCCCCN2CCN(c3ccccc3F)CC2)c2ccc(F)cc2)cc1 [Compound 30, 1-(2-Fluorophenyl)-4-[4-[bis(4-fluorophenyl)methoxy]butyl]piperazine]",Binding Ratios NET/DAT,[1]; Table 5,10.8
same,Binding Ratios SERT/DAT,[1]; Table 5,0.8
same,Discrimination Ratios (DR) [3H]DA reuptake/DAT binding,[4]; Table 6,11.9
same,ED50,male Swiss-Webster mice [7],0.015 mg/kg
same,mode of action,male Swiss-Webster mice [7]; Table 8,monophasic
same,"ME/CME, Maximal Effect/Cocaine Maximal Effect",male Swiss-Webster mice [7]; Table 8,0.49
same,effect on spontaneous LMA,male Swiss-Webster mice [7]; mouse,significant increase
same,Attenuation of cocaine-induced LMA,male Swiss-Webster mice [8],failed to attenuate
same,"AD50, dose attenuating cocaine-induced stimulation by 50%",male Swiss-Webster mice [8],no attenuation
"Fc1ccc(C(OCCCCN2CCN(c3ccccc3F)CC2)c2ccc(F)cc2)cc1 (as salt: oxalate) [Compound 30, 1-(2-Fluorophenyl)-4-[4-[bis(4-fluorophenyl)methoxy]butyl]piperazine]",melting point,,156 to 158 °C
"O=C(c1ccccc1)N1CCN(CCCCOC(c2ccc(F)cc2)c2ccc(F)cc2)CC1 (as salt: oxalate) [Compound 40, 1-Benzoyl-4-[1-[bis(4-fluorophenyl)methoxy]-4-butyl]piperazine]",melting point,,121 to 123 °C
"O=[N+]([O-])c1ccc(N2CCN(CCCCOC(c3ccc(F)cc3)c3ccc(F)cc3)CC2)cc1 (as salt: oxalate) [Compound 38, 1-[4-Nitrophenyl]-4-[1-[bis(4-fluorophenyl)methoxy]-4-butyl]piperazine]",melting point,,196 to 198 °C
"COc1ccccc1N1CCN(CCCCOC(c2ccc(F)cc2)c2ccc(F)cc2)CC1 (as salt: oxalate) [Compound 35, 1-(2-Methoxyphenyl)-4-[4-[bis(4-fluorophenyl)methoxy]butyl]piperazine]",melting point,,139 to 142 °C
"Fc1ccc(C(OCCCCN2CCN(c3ccc(Cl)cc3)CC2)c2ccc(F)cc2)cc1 (as salt: oxalate) [Compound 34, 1-(4-Chlorophenyl)-4-[4-[bis(4-fluorophenyl)methoxy]butyl]piperazine]",melting point,,179 to 181 °C
"Fc1ccc(C(OCCCCN2CCN(Cc3ccc4c(c3)OCO4)CC2)c2ccc(F)cc2)cc1 (as salt: oxalate) [Compound 41, 1-Benzo[1,3]dioxol-5-ylmethyl-4-[4-[bis(4-fluorophenyl)methoxy]butyl]piperazine]",melting point,,231 to 234 °C
"O=C1CN(CCCCOC(c2ccc(F)cc2)c2ccc(F)cc2)CCN1 [Compound 27, 2-Oxo-4-[4-[bis(4-fluorophenyl)methoxy]butyl]piperazine]",Binding Ratios NET/DAT,[1]; Table 5,>2.4
same,Binding Ratios SERT/DAT,[1]; Table 5,0.4
same,Ki,[1]; [10],4100 ± 790 nM
same,Ki,"[2]; Table 5, oxalate salts",1800 ± 450 nM
same,Ki,"[3]; Table 5, bound given in μM",> 10 µM
same,Discrimination Ratios (DR) [3H]DA reuptake/DAT binding,[4]; Table 6,0.6
same,IC50,[4]; [11],2290 ± 200 nM
same,IC50,"[5]; Table 6, read-out: Reuptake Inhibition [3H]5-HT IC50",5.34 ± 0.95 µM
same,IC50,"[6]; Table 6, bound given in μM",> 10 µM
O=C(NCC1CCCN(CCCCOC(c2ccc(F)cc2)c2ccc(F)cc2)C1)Nc1ccc(F)cc1 (stereo not drawn) [Compound 12],Ki,[1],93 nM
same,Binding Ratios NET/DAT,[1]; Table 2,1.1
same,Binding Ratios SERT/DAT,[1]; Table 2,2.1
same,Ki,[2]; Table 2,198 nM
same,Ki,"[3]; Table 2, [125I]RTI-55",0.099 µM
same,IC50,"[4]; Reuptake Inhibition [3H]DA IC50, Table 2-1",92 ± 24 nM
same,Discrimination Ratios [3H]DA reuptake/DAT binding,[4]; Table 2-1,1.0
same,IC50,"[5]; Reuptake Inhibition [3H]5-HT IC50, Table 2-1",0.123 ± 0.016 µM
same,IC50,[6]; Table 2-1,0.02 µM
O=C(Nc1ccc(F)cc1)NC1CCN(CCCCOC(c2ccc(F)cc2)c2ccc(F)cc2)CC1 [Compound 17],Ki,[1],32 ± 1.4 nM
same,Binding Ratios NET/DAT,[1]; Table 3,13.4
same,Binding Ratios SERT/DAT,[1]; Table 3,8.7
same,Ki,[2]; Table 3,279 ± 57 nM
same,Ki,"[3]; Table 3, [125I]RTI-55",0.43 ± 0.1 µM
same,IC50,"[4]; Reuptake Inhibition [3H]DA IC50, Table 3-1",7000 ± 1790 nM
same,Discrimination Ratios [3H]DA reuptake/DAT binding,[4]; Table 3-1,219
same,IC50,"[5]; Reuptake Inhibition [3H]5-HT IC50, Table 3-1",7.14 µM
same,IC50,[6]; Table 3-1,2.53 µM
"CC(=O)c1ccc(N2CCN(CCCCOC(c3ccc(F)cc3)c3ccc(F)cc3)CC2)cc1 [Compound 37, 1-[4-[4-[4-[Bis(4-fluorophenyl)methoxy]butyl]piperazin-1-yl]phenyl]ethanone]",Ki,[1],27 ± 8.6 nM
same,Binding Ratios NET/DAT,[1]; Table 5,4.1
same,Binding Ratios SERT/DAT,[1]; Table 5,1.6
same,Ki,"[2]; Table 5, oxalate salts",42 ± 16 nM
same,Ki,[3]; [13],0.112 ± 0.038 µM
same,IC50,"[4]; Reuptake Inhibition [3H]DA IC50, Table 6",3010 ± 8.6 nM
same,Discrimination Ratios (DR) [3H]DA reuptake/DAT binding,[4]; Table 6,111.5
same,IC50,"[5]; Reuptake Inhibition [3H]5-HT IC50, Table 6",1.23 ± 0.54 µM
same,IC50,[6]; Table 6,0.033 ± 0.015 µM
"Fc1ccc(C(OCCN2CCN(CCCc3ccccc3)CC2)c2ccc(F)cc2)cc1 [GBR 12909, reference compound]",ED50,male Swiss-Webster mice [7],6.24 mg/kg
same,"ME/CME, Maximal Effect/Cocaine Maximal Effect",male Swiss-Webster mice [7]; Table 8,1.22
same,ED50,male Swiss-Webster mice [9],6.9 mg/kg
same,"ME/CME, Maximal Effect/Cocaine Maximal Effect","male Swiss-Webster mice [9]; Table 9, 8 hours",0.73
